# Columns and labels:
# Presenilin 2 (Psen2) = biological target: T1, Presenilin 2 (Psen2) (Homo sapiens, UniProt P49810); test: Presenilin specific luciferase/cleavage reporter assay in PS1/2 DKO mEF reconstituted with Presenilin 2; type: cell-based; conditions: Psen2 reconstituted cells, compared to cleavage inhibition of the same compound for Psen1; FIG. 4
# T1 construct: expressed in transfected cells; host or cells: PS1/2 DKO mouse embryonic fibroblasts (mEF) reconstituted with Presenilin 2
# Method: Immunoblot on cell lysates of PS1/2 DKO cells, and PS1/2 DKO reconstituted with either Presenilin 1 or Presenilin 2 were provided. Blots were probed with antibodies for nicastrin, Presenilin 1 (C-terminal fragment), Presenilin 2 (C-terminal fragment), and β-actin (loading control) to verify the cell construct used for later experiments. Double knock out of PSEN1 and PSEN2 and reconstitution were successful.
# Cells were plated 24 hours prior to transfection in 6 wells plates (200.000 cells/well in 2 mL). Cells were transfected using linear polyethylenimin (P-PEI) and DMEM/f12. 2.3 μg Firefly luciferase reporter plasmids containing synthetic Gal4-binding sites (5xUAS FR-luc) were used per 6 well, as well as 150 ng herpes thymidine kinase-driven Renilla luciferase (here serving as a housekeeping gene, and thus normalizing yardstick) and 50 ng Histone-2B (H2B)-GFP (here serving as a control for transfection success). […] 24 h after transfection, […] were washed with PBS, lysed and measured following manufacturer's directions for the Dual Luciferase Reporter (DLRTM) Assay system (Promega, The Netherlands). Analysis was carried out using the FLUOstar microplate reader (BMG Labtech, Germany). […]
# [1] = test system: oncogenic mutant Notch1 (ΔEGF-Notch1-L1594P-MYC) activity
# Method: Cells transduced with ΔEGF-Notch1-L1594P construct were maintained with 1 μg/ml of puromycin. pcDNA3 hNotch1 full-length construct, encoding an N terminal FLAG-tag, followed by the ectodomains and the transmembrane domains of Notch1 fused to the Gal4 DNA binding domain and the transcriptional activation domain of Notch1 was used.
# Firefly luciferase encoding reporter plasmids containing synthetic CSL binding sites (pGL4.24-12xCSL) was used to monitor Notch activity, using pGL4.74 TK-hRL (Promega) as transfection control. […] A CMV driven Firefly luciferase-GFP construct was used as transfection control. Transfections were performed using Fugene HD transfection reagent (Promega). […]
# 1 μg of the primary reporter was used to record the effect of specific stimuli and 0.1 μg of the control reporter for normalization. […] Cells were washed, lysed and luciferase was measured, as described by manufacturer (dual-glo luciferase reporter assay system Promega) on a Fluostar Omega plate reader (BMG Labtech) For Gal4-luciferase assay, various concentrations of the Notch receptor plasmids were transfected and complemented with empty vector. […] For Gaussia-Luc assay, medium was collected at different time points to monitor overtime 12xCSL activation and measured with the BioLux® Gaussia Luciferase Assay Kit according to manufacturer's instructions (NEB). All values are expressed as relative light units (RLU).
# T1 sequence (P49810 1-297 limits assumed): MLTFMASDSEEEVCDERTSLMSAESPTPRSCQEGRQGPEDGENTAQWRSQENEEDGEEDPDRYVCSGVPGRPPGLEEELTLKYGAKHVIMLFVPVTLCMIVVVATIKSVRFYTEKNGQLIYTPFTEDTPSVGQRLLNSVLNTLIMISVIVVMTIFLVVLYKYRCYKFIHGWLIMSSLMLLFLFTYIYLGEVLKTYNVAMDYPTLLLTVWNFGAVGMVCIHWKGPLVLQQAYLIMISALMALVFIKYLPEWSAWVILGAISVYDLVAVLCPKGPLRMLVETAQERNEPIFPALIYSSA
# T1 sequence (P49810 298-448 limits assumed): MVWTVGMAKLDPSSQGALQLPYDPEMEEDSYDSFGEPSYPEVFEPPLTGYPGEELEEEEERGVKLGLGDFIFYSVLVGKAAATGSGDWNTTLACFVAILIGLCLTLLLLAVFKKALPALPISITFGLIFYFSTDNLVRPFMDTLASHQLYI
# T1 sequence (P57716 34-708 partner limits assumed): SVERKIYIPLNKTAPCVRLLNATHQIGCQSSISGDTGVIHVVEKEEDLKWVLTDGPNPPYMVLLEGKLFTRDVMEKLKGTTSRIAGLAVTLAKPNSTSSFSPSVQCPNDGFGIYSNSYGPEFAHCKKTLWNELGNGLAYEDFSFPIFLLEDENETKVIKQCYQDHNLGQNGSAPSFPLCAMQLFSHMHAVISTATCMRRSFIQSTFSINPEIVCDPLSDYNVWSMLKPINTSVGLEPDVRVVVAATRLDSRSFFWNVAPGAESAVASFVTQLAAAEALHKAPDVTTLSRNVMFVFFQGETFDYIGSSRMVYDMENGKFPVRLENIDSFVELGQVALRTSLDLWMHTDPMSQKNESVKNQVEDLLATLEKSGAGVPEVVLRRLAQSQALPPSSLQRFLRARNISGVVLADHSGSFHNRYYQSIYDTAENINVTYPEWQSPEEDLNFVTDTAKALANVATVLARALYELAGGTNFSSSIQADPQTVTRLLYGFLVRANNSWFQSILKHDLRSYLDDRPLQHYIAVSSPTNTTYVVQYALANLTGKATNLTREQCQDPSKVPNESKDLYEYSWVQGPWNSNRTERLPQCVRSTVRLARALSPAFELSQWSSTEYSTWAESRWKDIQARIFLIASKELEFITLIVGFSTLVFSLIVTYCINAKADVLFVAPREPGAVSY
# T1 sequence (Q8BVF7 whole entry partner): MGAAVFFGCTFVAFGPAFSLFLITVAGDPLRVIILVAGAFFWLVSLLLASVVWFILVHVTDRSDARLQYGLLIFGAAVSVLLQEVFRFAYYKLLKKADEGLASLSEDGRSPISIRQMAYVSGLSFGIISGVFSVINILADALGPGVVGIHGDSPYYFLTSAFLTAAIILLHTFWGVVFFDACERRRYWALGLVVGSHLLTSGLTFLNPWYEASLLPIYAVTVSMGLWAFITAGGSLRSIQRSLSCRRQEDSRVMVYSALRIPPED
# T1 sequence (Q9CQR7 whole entry partner): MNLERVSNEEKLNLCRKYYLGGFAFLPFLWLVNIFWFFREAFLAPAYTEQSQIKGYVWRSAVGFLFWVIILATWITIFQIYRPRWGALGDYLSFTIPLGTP
Structure (SMILES),Cleavage inhibition (Psen2 specificity) (Presenilin 2 (Psen2)),Inhibition of mutant Notch1 transcriptional activity by CQ [1]
"CCC[C@H](NC(=O)[C@@H](O)c1cc(F)cc(F)c1)C(=O)Nc1cn(C(C)(C)CN(C)C)cn1 [SN262, (S)-2-((S)-2-(3,5-difluorophenyl)-2-hydroxyacetamido)-N-(1-(1-(dimethylamino)-2-methylpropan-2-yl)-1H-imidazol-4-yl)pentanamide]",high percentage of cleavage inhibition,
"CCN(CC)CCCC(C)Nc1ccnc2cc(Cl)ccc12 (centres unmarked) [CQ, Chloroquine]",,most strongly inhibited
